Experimental findings from US9193722B2, “Tri-cyclic pyrazolopyridine kinase inhibitors” (Vertex Pharmaceuticals Incorporated, priority 2008, dated 2015) are described below.

Common to all, as to assay type: biochemical
One experiment concerns the target PKC theta kinase (Homo sapiens, UniProt Q04759). Put plainly: PKC theta kinase inhibition, coupled-enzyme (NADH absorbance) assay, Ki. As to conditions: 240 μM ATP, 18 nM PKC theta kinase, 30° C. The gist of the method: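 Coupled-enzyme kinase assay following NADH absorbance at 340 nm, in 100 mM HEPES pH 7.5, 10 mM MgCl2, 25 mM NaCl, 0.1 mM EDTA, 0.01% Brij. Compound in DMSO preincubated with enzyme 10 min at 30 °C. Ki from initial rates by non-linear regression.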

Another experiment addresses PKC delta kinase (Homo sapiens, UniProt Q05655). Put plainly: PKC delta kinase inhibition, coupled-enzyme (NADH absorbance) assay, Ki. Conditions: 150 μM ATP, 46 nM PKC delta kinase, 30° C.; read-out: Ki PKC delta. In short, it runs like this:
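PKC delta in 100 mM HEPES pH 7.5, 10 mM MgCl2, 25 mM NaCl, 0.1 mM EDTA, 0.01% Brij, equilibrated 10 min at 30° C with compound from DMSO stock. Started with ATP at 150 μM final; NADH-coupled absorbance at 340 nm followed 15 min at 30° C. Ki from initial rates by non-linear regression.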

In a further experiment the target is PKC alpha kinase (Homo sapiens, UniProt P17252). Put plainly: PKC alpha kinase inhibition, coupled-enzyme (NADH absorbance) assay, Ki. As to conditions: 130 μM ATP, 4.5 nM PKC alpha kinase, 30° C. In short, it runs like this:
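Enzyme in 100 mM HEPES pH 7.5, 10 mM MgCl2, 100 μM CaCl2, 0.01% Brij, preincubated with compound 10 min at 30 °C. Reaction started with 130 μM ATP (final); NADH consumption followed at 340 nm for 15 min at 30 °C. Ki fitted by non-linear regression of initial rates.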

A value given as a limit tells only on which side of the number the result lay.

Sequence of PKC delta kinase (Q05655 whole entry): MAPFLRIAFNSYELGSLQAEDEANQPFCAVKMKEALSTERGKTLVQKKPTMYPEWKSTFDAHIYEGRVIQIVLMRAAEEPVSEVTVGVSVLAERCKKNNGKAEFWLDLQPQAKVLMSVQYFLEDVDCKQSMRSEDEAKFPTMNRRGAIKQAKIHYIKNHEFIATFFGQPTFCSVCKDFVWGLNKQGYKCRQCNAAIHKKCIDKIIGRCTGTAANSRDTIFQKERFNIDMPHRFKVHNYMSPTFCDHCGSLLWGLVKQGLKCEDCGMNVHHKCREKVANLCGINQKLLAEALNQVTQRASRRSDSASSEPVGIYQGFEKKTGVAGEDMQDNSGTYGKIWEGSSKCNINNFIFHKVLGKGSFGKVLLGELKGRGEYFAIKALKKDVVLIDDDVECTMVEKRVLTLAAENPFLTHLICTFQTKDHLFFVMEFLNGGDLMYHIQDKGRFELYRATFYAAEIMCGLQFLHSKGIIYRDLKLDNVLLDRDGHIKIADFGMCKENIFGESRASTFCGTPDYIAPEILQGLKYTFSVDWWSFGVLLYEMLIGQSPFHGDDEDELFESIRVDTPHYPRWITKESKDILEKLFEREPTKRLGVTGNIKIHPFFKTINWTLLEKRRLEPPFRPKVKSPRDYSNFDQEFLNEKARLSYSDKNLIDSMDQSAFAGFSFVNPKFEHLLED
Sequence of PKC theta kinase (Q04759 whole entry): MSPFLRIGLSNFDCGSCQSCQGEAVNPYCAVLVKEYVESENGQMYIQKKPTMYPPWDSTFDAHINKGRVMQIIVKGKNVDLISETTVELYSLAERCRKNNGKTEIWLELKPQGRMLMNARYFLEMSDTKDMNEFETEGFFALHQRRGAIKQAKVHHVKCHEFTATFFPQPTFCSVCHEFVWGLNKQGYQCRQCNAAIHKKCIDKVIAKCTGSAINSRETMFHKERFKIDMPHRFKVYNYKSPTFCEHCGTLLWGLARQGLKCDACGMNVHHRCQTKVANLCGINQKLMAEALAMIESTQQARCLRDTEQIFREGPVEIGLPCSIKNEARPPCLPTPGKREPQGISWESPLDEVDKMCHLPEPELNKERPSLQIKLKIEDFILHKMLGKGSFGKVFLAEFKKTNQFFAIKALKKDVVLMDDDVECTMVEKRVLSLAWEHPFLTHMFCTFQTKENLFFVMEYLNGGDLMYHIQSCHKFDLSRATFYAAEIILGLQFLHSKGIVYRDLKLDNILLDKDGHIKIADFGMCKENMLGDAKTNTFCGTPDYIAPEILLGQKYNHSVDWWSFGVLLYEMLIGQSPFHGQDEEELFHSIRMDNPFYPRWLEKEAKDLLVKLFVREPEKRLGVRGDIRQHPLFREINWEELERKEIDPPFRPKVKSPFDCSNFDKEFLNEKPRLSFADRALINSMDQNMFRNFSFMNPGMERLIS

`CC(C)C[C@H]1CN(c2ccc(F)c(-c3n[nH]c4ncccc34)n2)C[C@H](C)N1` [Compound 182]: the Ki on PKC theta kinase was above 0.7 µM; at PKC delta kinase, above 1.25 µM; on PKC alpha kinase it was above 1.25 µM.
On to `CC(C)C[C@H]1CN(c2ccc(F)c(-c3n[nH]c4ncccc34)n2)C[C@@H](C)N1` [Compound 183], for which the values for the Ki at PKC theta kinase, on PKC delta kinase and on PKC alpha kinase were below 0.05 µM, below 0.5 µM and below 2.8 µM, respectively.
As for `COC[C@H]1CN(c2cccc(-c3n[nH]c4ncccc34)n2)CCN1` [Compound 184], the Ki on PKC theta kinase was below 0.05 µM; on PKC delta kinase, below 0.5 µM; on PKC alpha kinase, above 1.25 µM.
As to `OC1(C2CN(c3cccc(-c4n[nH]c5ncccc45)n3)CCN2)CC1` (stereo not drawn) [Compound 186], the values for the Ki at PKC theta kinase, on PKC delta kinase and at PKC alpha kinase were below 0.05 µM, below 0.05 µM and below 2.8 µM, respectively.
On to `c1cc(-c2n[nH]c3ncccc23)nc(N2CCNC3(CCC3)C2)c1` [Compound 187], for which the Ki on PKC theta kinase is below 0.05 µM; at PKC delta kinase, below 0.05 µM; at PKC alpha kinase it was below 0.5 µM.
With `Fc1ccc(N2CCNC3(CCC3)C2)nc1-c1n[nH]c2ncccc12` [Compound 188], the Ki at PKC theta kinase was below 0.05 µM; on PKC delta kinase it was below 0.5 µM; at PKC alpha kinase, below 2.8 µM.
On to `CC(C)CC1(C)CN(c2cccc(-c3n[nH]c4ncccc34)n2)CCC1N` (stereo not drawn) [Compound 189], for which the Ki is below 0.05 µM on PKC theta kinase, below 0.05 µM on PKC delta kinase and below 0.5 µM on PKC alpha kinase.
As for `COC(C)(C)C1CN(c2ccc(F)c(-c3n[nH]c4ncccc34)n2)CCN1` (stereo not drawn) [Compound 190], the figures for the Ki at PKC theta kinase, at PKC delta kinase and at PKC alpha kinase were below 0.5 µM, above 1.25 µM and above 1.25 µM, respectively.
With `FC(F)(F)c1ccnc2[nH]nc(-c3cccc(N4CCNCC4)n3)c12` [Compound 191], the Ki at PKC theta kinase was below 0.5 µM; on PKC delta kinase, above 1.25 µM; at PKC alpha kinase, above 1.25 µM.
As to `CC(C)C[C@@H]1CN(c2ccc(C(F)(F)F)c(-c3n[nH]c4ncccc34)n2)CCN1` [Compound 193], the values for the Ki on PKC theta kinase, at PKC delta kinase and at PKC alpha kinase were below 0.5 µM, above 1.25 µM and above 1.25 µM, respectively.
For `O=C1CN(c2ccc(C(F)(F)F)c(-c3n[nH]c4ncccc34)n2)CCN1` [Compound 194], the Ki on PKC theta kinase is above 0.7 µM; at PKC delta kinase it was above 1.25 µM; at PKC alpha kinase it was above 1.25 µM.
As to `CC(C)C[C@@]1(O)CN(c2ccc(C(F)(F)F)c(-c3n[nH]c4ncccc34)n2)CC[C@H]1N` [Compound 195], the Ki at PKC theta kinase was below 0.05 µM; on PKC delta kinase it was below 0.5 µM; at PKC alpha kinase, below 0.5 µM.
For the molecule `CC(C)CC1(O)CNCCN(c2ccc(F)c(-c3n[nH]c4ncccc34)n2)C1` (stereo not drawn) [Compound 196], the results for the Ki at PKC theta kinase, on PKC delta kinase and at PKC alpha kinase were below 0.5 µM, above 1.25 µM and above 1.25 µM, respectively.
In the case of `CC(C)(C)C1CN(c2ccc(F)c(-c3n[nH]c4ncccc34)n2)CCN1` (stereo not drawn) [Compound 197], the Ki on PKC theta kinase is below 0.05 µM; on PKC delta kinase it was below 0.5 µM; on PKC alpha kinase, above 1.25 µM.
On to `CC(C)C[C@@]1(F)CN(c2ccc(C(F)(F)F)c(-c3n[nH]c4ncccc34)n2)CC[C@H]1O` [Compound 198], for which the results for the Ki on PKC theta kinase, on PKC delta kinase and at PKC alpha kinase were below 0.5 µM, above 1.25 µM and above 1.25 µM, respectively.
`CC(C)C[C@@]1(F)CN(c2ccc(F)c(-c3n[nH]c4ncccc34)n2)CC[C@H]1O` [Compound 199]: the Ki on PKC theta kinase is below 0.5 µM; at PKC delta kinase, above 1.25 µM; at PKC alpha kinase it was above 1.25 µM.
For `CC(C)C[C@H]1CN(c2ccc(C(F)(F)F)c(-c3n[nH]c4ncccc34)n2)C[C@H](C)N1` [Compound 202], the results for the Ki on PKC theta kinase, on PKC delta kinase and on PKC alpha kinase were above 0.7 µM, above 1.25 µM and above 1.25 µM, respectively.
`CC(C)C[C@H]1CN(c2ccc(C(F)(F)F)c(-c3n[nH]c4ncccc34)n2)C[C@@H](C)N1` [Compound 203]: the results for the Ki at PKC theta kinase, on PKC delta kinase and on PKC alpha kinase were below 0.05 µM, below 0.5 µM and below 0.5 µM, respectively.
On to `Fc1ccc(N2CCNC(CC(F)(F)F)C2)nc1-c1n[nH]c2ncccc12` (stereo not drawn) [Compound 206], for which the figures for the Ki on PKC theta kinase, at PKC delta kinase and at PKC alpha kinase were below 0.05 µM, below 2.8 µM and above 1.25 µM, respectively.
In the case of `CC(C)C(O)(C1CN(c2ccc(F)c(-c3n[nH]c4ncccc34)n2)CCN1)C(F)(F)F` (stereo not drawn) [Compound 207], the results for the Ki at PKC theta kinase, at PKC delta kinase and on PKC alpha kinase were below 0.05 µM, below 2.8 µM and above 1.25 µM, respectively.
For the molecule `NC(=O)CC1CN(c2ccc(C(F)(F)F)c(-c3n[nH]c4ncccc34)n2)CCN1` (stereo not drawn) [Compound 209], the Ki at PKC theta kinase was below 0.5 µM; on PKC delta kinase, above 1.25 µM; on PKC alpha kinase it was above 1.25 µM.
With `CNC(=O)CC1CN(c2ccc(C(F)(F)F)c(-c3n[nH]c4ncccc34)n2)CCN1` (stereo not drawn) [Compound 210], the Ki on PKC theta kinase was below 0.5 µM; on PKC delta kinase it was above 1.25 µM; at PKC alpha kinase it was above 1.25 µM.
As for `CN(C)C(=O)CC1CN(c2ccc(C(F)(F)F)c(-c3n[nH]c4ncccc34)n2)CCN1` (stereo not drawn) [Compound 211], the Ki was above 0.7 µM on PKC theta kinase, above 1.25 µM on PKC delta kinase and above 1.25 µM on PKC alpha kinase.
Turning to `CCNC(=O)CC1CN(c2ccc(C(F)(F)F)c(-c3n[nH]c4ncccc34)n2)CCN1` (stereo not drawn) [Compound 212], the Ki is above 0.7 µM at PKC theta kinase, above 1.25 µM on PKC delta kinase and above 1.25 µM on PKC alpha kinase.
As to `NC(=O)C1CN(c2ccc(C(F)(F)F)c(-c3n[nH]c4ncccc34)n2)CCN1` (stereo not drawn) [Compound 213], the Ki was above 0.7 µM at PKC theta kinase, above 1.25 µM at PKC delta kinase and above 1.25 µM at PKC alpha kinase.
In the case of `CNC(=O)C1CN(c2ccc(C(F)(F)F)c(-c3n[nH]c4ncccc34)n2)CCN1` (stereo not drawn) [Compound 214], the Ki is above 0.7 µM at PKC theta kinase, above 1.25 µM on PKC delta kinase and above 1.25 µM on PKC alpha kinase.
As to `CN(C)C(=O)C1CN(c2ccc(C(F)(F)F)c(-c3n[nH]c4ncccc34)n2)CCN1` (stereo not drawn) [Compound 215], the Ki at PKC theta kinase is above 0.7 µM; on PKC delta kinase, above 1.25 µM; on PKC alpha kinase, above 1.25 µM.
In the case of `CCNC(=O)C1CN(c2ccc(C(F)(F)F)c(-c3n[nH]c4ncccc34)n2)CCN1` (stereo not drawn) [Compound 216], the Ki is above 0.7 µM at PKC theta kinase, above 1.25 µM at PKC delta kinase and above 1.25 µM on PKC alpha kinase.
Consider `CC(C)CC1CN(c2ccc(C(F)(F)F)c(-c3n[nH]c4ncccc34)n2)CC(CF)N1` (stereo not drawn) [Compound 217], for which the Ki at PKC theta kinase was above 0.7 µM; on PKC delta kinase it was above 1.25 µM; on PKC alpha kinase, above 1.25 µM.
In the case of `CC(C)C[C@]1(O)CN(c2ccc(C(F)(F)F)c(-c3n[nH]c4ncccc34)n2)CC[C@H]1N` [Compound 218], the values for the Ki at PKC theta kinase, on PKC delta kinase and at PKC alpha kinase were below 0.05 µM, below 0.5 µM and below 0.5 µM, respectively.
For the molecule `CC(C)C[C@]1(O)CN(c2ccc(C(F)(F)F)c(-c3n[nH]c4ncccc34)n2)CC[C@@H]1N` [Compound 219], the Ki at PKC theta kinase was below 0.5 µM; on PKC delta kinase, below 0.5 µM; on PKC alpha kinase, below 2.8 µM.
For the molecule `Fc1ccc(N2CCNC(C3CC3)C2)nc1-c1n[nH]c2ncccc12` (stereo not drawn) [Compound 220], the Ki was below 0.05 µM at PKC theta kinase, below 0.5 µM on PKC delta kinase and below 2.8 µM on PKC alpha kinase.
Take `COC(C)C1CN(c2ccc(C(F)(F)F)c(-c3n[nH]c4ncccc34)n2)CCN1` (stereo not drawn) [Compound 221]: the Ki was below 0.5 µM at PKC theta kinase, above 1.25 µM on PKC delta kinase and above 1.25 µM at PKC alpha kinase.
For the molecule `CC(C)C[C@H]1CN(c2ccc(C(F)(F)F)c(-c3n[nH]c4ncccc34)n2)CC(F)(F)CN1` [Compound 222], the results for the Ki on PKC theta kinase, on PKC delta kinase and at PKC alpha kinase were above 0.7 µM, above 1.25 µM and above 1.25 µM, respectively.
Turning to `CCC[C@H]1CN(c2ccc(C(F)(F)F)c(-c3n[nH]c4ncccc34)n2)CC(F)(F)CN1` [Compound 223], the Ki at PKC theta kinase was above 0.7 µM; at PKC delta kinase, above 1.25 µM; at PKC alpha kinase, above 1.25 µM.
As for `CC(C)C[C@H]1CN(c2ccc(C(F)(F)F)c(-c3n[nH]c4ncccc34)n2)CCCN1` [Compound 224], the Ki on PKC theta kinase is below 0.5 µM; at PKC delta kinase, above 1.25 µM; at PKC alpha kinase, above 1.25 µM.
In the case of `CC(C)C[C@H]1CN(c2cccc(-c3n[nH]c4ncccc34)n2)CC(F)(F)CN1` [Compound 225], the Ki was below 0.5 µM on PKC theta kinase, above 1.25 µM on PKC delta kinase and above 1.25 µM on PKC alpha kinase.
Consider `CN1CCN(c2ccc(F)c(-c3n[nH]c4ncccc34)n2)CC1` [Compound 226, 3-(3-fluoro-6-(4-methylpiperazin-1-yl)pyridin-2-yl)-1H-pyrazolo[3,4-b]pyridine], for which the Ki was below 0.5 µM at PKC theta kinase, above 1.25 µM on PKC delta kinase and above 1.25 µM on PKC alpha kinase.
On to `CCC[C@H]1CN(c2cccc(-c3n[nH]c4ncccc34)n2)CC(F)(F)CN1` [Compound 227], for which the results for the Ki on PKC theta kinase, on PKC delta kinase and on PKC alpha kinase were below 0.5 µM, above 1.25 µM and above 1.25 µM, respectively.
Consider `CCC[C@H]1CN(c2cccc(-c3n[nH]c4ncccc34)n2)CCCN1` [Compound 228], for which the figures for the Ki on PKC theta kinase, on PKC delta kinase and on PKC alpha kinase were below 0.05 µM, below 0.5 µM and below 0.5 µM, respectively.
Regarding `OC1(C2CN(c3ccc(F)c(-c4n[nH]c5ncccc45)n3)CCN2)COC1` (stereo not drawn) [Compound 230], the Ki is below 0.05 µM on PKC theta kinase, above 1.25 µM on PKC delta kinase and above 1.25 µM on PKC alpha kinase.
As to `OC1(C2CN(c3cccc(-c4n[nH]c5ncccc45)n3)CCN2)COC1` (stereo not drawn) [Compound 232], the Ki at PKC theta kinase is above 0.7 µM; on PKC delta kinase it was above 1.25 µM; at PKC alpha kinase it was above 1.25 µM.
